Patent publication US20240041042A1, “1-(PYRIDYL)-5-AZINYLPYRAZOLE DERIVATIVES, AND THEIR USE FOR CONTROL OF UNDESIRED PLANT GROWTH” (Bayer Aktiengesellschaft, priority 2020, published 2024)
Where two headings read alike, the source gives them in different places.

How the values were obtained:
Type in all cases: in vivo
[1] = system: Digitaria sanguinalis (DIGSA); experiment: Post-emergence herbicidal action against DIGSA; conditions: 320 g/ha, visual rating about 3 weeks after treatment
In short: (§1)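 Values are percent visual activity (0% like control, 100% plants dead) after about 3 weeks in the greenhouse. Treatment: post-emergence spray at one-leaf stage, 600 l/ha spray volume, 0.5% additive, doses 320 g/ha or lower.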

[2] = system: Verconica persica (VERPE); experiment: Post-emergence herbicidal action against VERPE
In short: as §1

[3] = system: Glycine max (GLXMA); conditions: pre-emergence, 80 g/ha, crop plant compatibility, in comparison to untreated controls
In short: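 Scoring: visual, % of untreated control, about 3 weeks after a pre-emergence application to the soil surface. Application used WP or EC formulations diluted in water with 0.5% additive at 600 l/ha; dosage levels are marked by suffixes a, b and c.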

[4] = system: Avena fatua (AVEFA); experiment: Post-emergence herbicidal action against AVEFA; conditions: visual rating about 3 weeks after treatment
In short: as §1

[5] = system: Viola tricolor (VIOTR); experiment: Pre-emergence herbicidal action against VIOTR
In short: (§2)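 Read-out is visual percent damage relative to untreated pots, with 100% meaning dead plants and 0% meaning no difference, assessed roughly three weeks after treatment. Compounds were applied pre-emergence to the covering soil at up to 320 g/ha.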

[6] = system: Echinochloa crus-galli (ECHCG); experiment: Post-emergence herbicidal action against ECHCG
In short: as §1

[7] = system: Matricaria inodora (MATIN); experiment: Pre-emergence herbicidal action against MATIN; conditions: dosage 320 g/ha
In short: as §2

[8] = system: Pharbitis purpurea (PHBPU); experiment: Post-emergence herbicidal action against PHBPU; conditions: dosage 320 g/ha
In short: as §1

[9] = system: Matricaria inodora (MATIN); experiment: Post-emergence herbicidal action against MATIN; conditions: dosage 320 g/ha
In short: as §1

[10] = system: Setaria viridis (SETVI); experiment: Post-emergence herbicidal action against SETVI
In short: as §1

[11] = system: Alopecurus myosuroides (ALOMY); experiment: Pre-emergence herbicidal action against ALOMY; conditions: 320 g/ha; scored visually after about 3 weeks; 100% = plants have died
In short: as §2

[12] = system: Viola tricolor (VIOTR); experiment: Post-emergence herbicidal action against VIOTR
In short: as §1

[13] = system: Amaranthus retroflexus (AMARE); experiment: Post-emergence herbicidal action against AMARE; conditions: 320 g/ha, visual rating about 3 weeks after treatment
In short: as §1

[14] = system: Setaria viridis (SETVI); experiment: Pre-emergence herbicidal action against SETVI
In short: as §2

[15] = system: Alopecurus myosuroides (ALOMY); experiment: Post-emergence herbicidal action against ALOMY; conditions: 320 g/ha, visual rating about 3 weeks after treatment vs untreated controls (100% = plants have died, 0% = like control plants)
In short: as §1

[16] = system: Echinochloa crus-galli (ECHCG); experiment: Pre-emergence herbicidal action against ECHCG
In short: as §2

[17] = system: Polygonum convolvulus (POLCO); experiment: Post-emergence herbicidal action against POLCO; conditions: dosage 320 g/ha
In short: as §1

[18] = system: Lolium rigidum (LOLRI); experiment: Pre-emergence herbicidal action against LOLRI
In short: as §2

[19] = system: Verconica persica (VERPE); experiment: Pre-emergence herbicidal action against VERPE; conditions: dosage 320 g/ha
In short: as §2

[20] = system: Amaranthus retroflexus (AMARE); experiment: Pre-emergence herbicidal action against AMARE; conditions: 320 g/ha, visual scoring after about 3 weeks vs untreated controls
In short: as §2

[21] = system: Digitaria sanguinalis (DIGSA); experiment: Pre-emergence herbicidal action against DIGSA
In short: as §2

[22] = system: Avena fatua (AVEFA); experiment: Pre-emergence herbicidal action against AVEFA; conditions: 320 g/ha, visual scoring after about 3 weeks vs untreated controls
In short: as §2

[23] = system: Lolium rigidum (LOLRI); experiment: Post-emergence herbicidal action against LOLRI
In short: as §1

[24] = system: Oryza sativa (ORYSA); conditions: crop plant compatibility, effect in comparison to untreated controls
In short: (§3)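 One-leaf-stage crops (2–3 wk post-sowing, sandy loam, greenhouse) sprayed on green parts; 0.5% additive, 600 l/ha water. Rated by eye ~3 wk later, % vs untreated; suffixes a/b/c mark different dosages.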

[25] = system: Polygonum convolvulus (POLCO); experiment: Pre-emergence herbicidal action against POLCO; conditions: dosage 320 g/ha
In short: as §2

[26] = system: Zea mays (ZEAMX); conditions: crop plant compatibility, 80 g/ha, effect vs untreated controls
In short: as §3

| Compound | Post-emergence action against DIGSA in % [1] [%] | Pre-emergence action against GLXMA in % [3] [%] | Pre-emergence action against VIOTR in % ([5]; 320 g/ha, Viola tricolor) [%] | Pre-emergence action against VIOTR in % ([5]; dosage 80 g/ha) [%] | Post-emergence action against ECHCG in % ([6]; dosage 320 g/ha) [%] | Pre-emergence action against MATIN in % [7] [%] | Post-emergence action against PHBPU in % [8] [%] | Pre-emergence action against ALOMY [11] [%] | Post-emergence action against VIOTR in % ([12]; 80 g/ha) [%] | Post-emergence action against VIOTR in % ([12]; 320 g/ha) [%] | Post-emergence action against AMARE in % [13] [%] | Pre-emergence action against SETVI in % ([14]; dosage 320 g/ha) [%] | Post-emergence action against ALOMY in % [15] [%] | Post-emergence action against POLCO in % [17] [%] | Pre-emergence action against LOLRI in % ([18]; dosage 320 g/ha) [%] | Pre-emergence action against AMARE in % [20] [%] | Pre-emergence action against DIGSA in % ([21]; dosage 320 g/ha) [%] | Post-emergence action against LOLRI in % ([23]; dosage 320 g/ha) [%] | Post-emergence action against ORYSA in % ([24]; 80 g/ha) [%] | Pre-emergence action against POLCO in % [25] [%] | also measured |
| --- | --- | --- | --- | --- | --- | --- | --- | --- | --- | --- | --- | --- | --- | --- | --- | --- | --- | --- | --- | --- | --- |
| COC(=O)[C@@H](C)Oc1nn(-c2nc(F)ccc2F)c(-c2ccc(F)nc2)c1C1CC1 [Example I-298] | 80 | 20 | 100 | 100 | 90 | 90 | 90 | 90 | 80 | 90 | 80 | 100 | 90 | 80 | 100 | 100 | 100 | 90 | 20 | – | Post-emergence action against VERPE in % ([2]; 320 g/ha, VERPE): 80%; Post-emergence action against VERPE in % ([2]; dosage 80 g/ha): 80%; Post-emergence action against AVEFA in % ([4]; 80 g/ha): 80%; Post-emergence action against AVEFA in % ([4]; 320 g/ha): 90%; Post-emergence action against ECHCG in % ([6]; dosage 80 g/ha): 80%; Post-emergence action against MATIN in % [9]: 80%; Post-emergence action against SETVI in % ([10]; dosage 80 g/ha): 90%; Post-emergence action against SETVI in % ([10]; dosage 320 g/ha): 90%; Pre-emergence action against SETVI in % ([14]; dosage 80 g/ha): 100%; Pre-emergence action against ECHCG in % ([16]; dosage 80 g/ha): 90%; Pre-emergence action against ECHCG in % ([16]; dosage 320 g/ha): 100%; Pre-emergence action against LOLRI in % ([18]; dosage 80 g/ha): 90%; Pre-emergence action against VERPE in % [19]: 100%; Pre-emergence action against DIGSA in % ([21]; 80 g/ha, visual scoring after about 3 weeks vs untreated controls): 100%; Pre-emergence action against AVEFA in % [22]: 90%; Post-emergence action against LOLRI in % ([23]; dosage 80 g/ha): 90% |
| CC(C)C(Oc1nn(-c2ccccn2)c(-c2ccc(F)nc2)c1Br)C(=O)O (stereo not drawn) [Example I-347] | 80 | 10 | 100 | 90 | 80 | 80 | – | 80 | 80 | 80 | – | 80 | 80 | 80 | – | – | 90 | – | 0 | 80 | Post-emergence action against ZEAMX in % [26]: 20%; Post-emergence action against ORYSA in % ([24]; 320 g/ha): 0% |
| C[C@@H](Oc1nn(-c2ccccn2)c(-c2ccc(Cl)nc2)c1Cl)C(=O)O [Example I-238] | – | 20 | 90 | – | 80 | – | 80 | 90 | – | 80 | 80 | – | 80 | 80 | 90 | 80 | 90 | 80 | 0 | 80 | Post-emergence action against ZEAMX in % [26]: 10%; Post-emergence action against ORYSA in % ([24]; 320 g/ha): 10% |
